According to patent publication US10941157B2, “Pesticidal compositions and uses thereof” (Gilead Apollo, LLC, priority 2015, dated 2021):
≈ marks a conversion by molar mass, not a printed value.

Legend:
Format in all cases: cell-based
Septoria tritici (St) = experiment: In vitro pathogen growth inhibition assay, St; details: Zymoseptoria tritici, 48 h, ≥90% inhibition; 48 hours vs 2% DMSO control; read-out: Compound Concentration (ppm) sufficient for ≥90% inhibition of growth, St
Outline: (§1)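 Spores in 17% V8 liquid medium, or 1.5 mm Rs mycelial plugs in ¼ PDB, incubated with compound; final concentration checked by OD600 for precipitation. OD readings at 24 and 48 h, blank-subtracted, plus visual ratings; value is concentration giving ≥90% growth inhibition.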

Botrtyis cinerea (Bc) = experiment: In vitro pathogen growth inhibition assay, Bc; details: 48 h, ≥90% inhibition; 48 hours vs 2% DMSO control; read-out: Compound Concentration (ppm) sufficient for ≥90% inhibition of growth, Bc
Outline: as §1

Diplodia maydis (Dm) = experiment: In vitro pathogen growth inhibition assay, Dm; details: Stenocarpella maydis, 48 h, ≥90% inhibition; 48 hours vs 2% DMSO control; read-out: Compound Concentration (ppm) sufficient for ≥90% inhibition of growth, Dm
Outline: (§2)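 Value reported is the compound concentration reaching ≥90% growth inhibition, from OD readings at 24 and 48 h after blank subtraction, confirmed visually. Inoculum was spores diluted in 17% V8 medium, except Rs, using 1.5 mm mycelial plugs in ¼ PDB; actual compound concentration corrected via OD600.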

[1] = test system: Fusarium virguliforme (Fv); experiment: In vitro pathogen growth inhibition assay, Fv; details: ≥90% inhibition, 48 hours vs 2% DMSO control, read-out: Compound Concentration (ppm) sufficient for ≥90% inhibition of growth, Fv
Outline: as §2

[2] = test system: Phytophthora capsici (Pc); experiment: In vitro pathogen growth inhibition assay, Pc; details: 48 h, ≥90% inhibition, 48 hours vs 2% DMSO control, read-out: Compound Concentration (ppm) sufficient for ≥90% inhibition of growth, Pc
Outline: as §2

[3] = test system: Fusarium moniliforme (Fm); experiment: In vitro pathogen growth inhibition assay, Fm; details: Fusarium verticillioides; ≥90% inhibition; 48 hours vs 2% DMSO control; read-out: Compound Concentration (ppm) sufficient for ≥90% inhibition of growth, Fm
Outline: as §1

[4] = test system: Collectotrichum graminicola (Cg); experiment: In vitro pathogen growth inhibition assay, Cg; details: 48 h, ≥90% inhibition; 48 hours vs 2% DMSO control; read-out: Compound Concentration (ppm) sufficient for ≥90% inhibition of growth, Cg
Outline: as §1

Rhizoctonia solani (Rs) = experiment: In vitro pathogen growth inhibition assay, Rs (mycelial plugs); details: Rhizoctonia solani, 48 h, ≥90% inhibition; mycelial plugs; 48 hours vs 2% DMSO control; read-out: Compound Concentration (ppm) sufficient for ≥90% inhibition of growth, Rs
Outline: as §2

[5] = test system: Saccharomyces cerevisiae (Sc); experiment: Yeast growth inhibition assay; details: Saccharomyces cerevisiae, ≥75% inhibition, read-out: Compound Concentration (ppm) sufficient for ≥75% inhibition, Sc
Procedure: Both tables list the concentration of each compound that was sufficient to ≥90% inhibition of growth for each of the fungal pathogens listed above. In addition, some of compounds were tested in a yeast growth inhibition assay for Saccharomyces cerevisiae (Sc). Table 2 lists the concentration of the tested compound that was sufficient to ≥75% inhibition of Saccharomyces cerevisiae (Sc).

SMILES	IC90 (Septoria tritici (St)) [µg/mL]	IC90 (Botrtyis cinerea (Bc)) [µg/mL]	IC90 (Diplodia maydis (Dm)) [µg/mL]	IC90 [1] [µg/mL]	IC90 [2] [µg/mL]	IC90 [3] [µg/mL]	IC90 [4] [µg/mL]	IC90 (Rhizoctonia solani (Rs)) [µg/mL]	IC75 [5] [µg/mL]
COc1ccc(F)cc1[C@H](Cn1c(=O)n(C(C)(C)C(N)=O)c(=O)c2c(C)c(-c3ncco3)sc21)OC1CCOCC1 [Compound I-101]	> 50	10 (≈ 17 µM)	10 (≈ 17 µM)	10 (≈ 17 µM)	50 (≈ 85.2 µM)	0.4 (≈ 0.682 µM)	10 (≈ 17 µM)	50 (≈ 85.2 µM)	3.7 (≈ 6.31 µM)
COc1ccccc1[C@H](Cn1c(=O)n(C(C)(C)C(=O)OCc2ccccc2)c(=O)c2c(C)c(-c3ncco3)sc21)OC1CCC(=O)CC1 [Compound I-107]	> 50	0.4 (≈ 0.595 µM)	≥ 0.4	> 50	> 50	0.4 (≈ 0.595 µM)	> 50	> 50	> 33.3
CCOC(=O)c1sc2c(c1C)c(=O)n(C(C)(C)C(=O)N1CCOCC1)c(=O)n2C[C@H](OC(C)C)c1ccccc1OC [Compound I-109]	> 50	0.4 (≈ 0.665 µM)	2 (≈ 3.32 µM)	10 (≈ 16.6 µM)	> 50	0.4 (≈ 0.665 µM)	10 (≈ 16.6 µM)	50 (≈ 83.1 µM)	11.1 (≈ 18.4 µM)
COc1ccc(F)cc1[C@H](Cn1c(=O)n(C(C)(C)C(N)=O)c(=O)c2c(C)c(-c3ncco3)sc21)OCC1CCC(=O)CC1 [Compound I-149]	> 50	10 (≈ 16.3 µM)	50 (≈ 81.6 µM)	2 (≈ 3.26 µM)	> 50	2 (≈ 3.26 µM)	50 (≈ 81.6 µM)	> 50	11 (≈ 18 µM)
COc1ccc(F)cc1[C@H](Cn1c(=O)n(CCS(N)(=O)=O)c(=O)c2c(C)c(-c3ncco3)sc21)OC1CCOCC1 [Compound I-148]	> 50	10 (≈ 16.4 µM)	> 10	50 (≈ 82.1 µM)	> 50	2 (≈ 3.29 µM)	50 (≈ 82.1 µM)	50 (≈ 82.1 µM)	33 (≈ 54.2 µM)
COc1ccccc1[C@H](Cn1c(=O)n(C(C)(C)C(=O)N2CCCC2)c(=O)c2c(C)c(-c3ncco3)sc21)OC1CCC(=O)CC1 [Compound I-112]	50 (≈ 78.8 µM)	2 (≈ 3.15 µM)	10 (≈ 15.8 µM)	10 (≈ 15.8 µM)	> 50	0.4 (≈ 0.63 µM)	≥ 2	50 (≈ 78.8 µM)	3.7 (≈ 5.83 µM)
CCOC(=O)c1sc2c(c1C)c(=O)n(C(C)(C)C(=O)NC(C)C)c(=O)n2C[C@H](OC1CCOCC1)c1ccccc1OC [Compound I-008]	> 10	0.4 (≈ 0.65 µM)	2 (≈ 3.25 µM)	2 (≈ 3.25 µM)	> 50	0.08 (≈ 0.13 µM)	2 (≈ 3.25 µM)	10 (≈ 16.2 µM)	3.7 (≈ 6.01 µM)
